Laboratory results as given in US20190225647A1, “ANTIGENIC PEPTIDES FOR THE DIAGNOSIS, THERAPY MONITORING AND/OR TREATMENT OF PSORIASIS VULGARIS” (Ludwig-Maximilians-Universität München, priority 2015, published 2019).

B1: IFN-γ: interferon-γ, increases the expression of HLA-class I molecules (protein, UniProt P01579 24-161, looked up)
Interferon gamma: QDPYVKEAENLKKYFNAGHSDVADNGTLFLGILKNWKEESDRKIMQSQIVSFYFKLFKNFKDDQSIQKSVETIKEDMNVKFFNSNKKKRDDFEKLTNYSVTDLNVQRKAIHELIQVMAELSPAAKTGKRKRSQMLFRG

Legend:
[1] = test system: CD8+ T cells from psoriasis patients; experiment: Staining of PBMC from psoriasis patients with FITC-labelled HLA-C*06:02-peptide dextramers; type: binding, human; conditions: flow cytometry
Method: We used FITC-labelled HLA-C*06:02-peptide dextramers to stain CD8^+ T cells from psoriasis patients. […] Thus, the peptides can be used in complex with HLA-C dextramers to address autoreactive T cells in blood of psoriasis patients. • Autoantigenic peptides complexed with HLA-C*06:02-multimers can be used to identify autoreactive CD8^+ T cells in psoriasis. […]
Fluorescent dextramers were prepared of HLA-C*06:02 and antigenic or control peptides. […] PBMC from psoriasis patients were incubated with standard dilutions of the HLA-C*06:02-peptide dextramers and a phycoerythrin-labelled CD8 antibody and the frequency of double stained cells subsequently determined by flow cytometry on a FACScan flow cytometer. Data were analyzed by FlowJo software 887.

HLA-class I = type: cell-based; conditions: HLA-C*06:02-positive primary human melanocytes preincubated with IFN-γ
From the text: When assessing the results given below, however, it needs to be considered that the percentage of activated i.e. green-fluorescing cells in this complex cell-based recombinant assay may differ between different experiments. It may be influenced by the stability of the respective hybridoma cell batch and, in co-culture experiments, by the quantitative ratio of stimulatory and hybridoma cells, which decides the probability of cell-cell contacts (Siewert et al., 2011).
We isolated primary melanocytes from the skin and seeded them in explant culture. Cell type was confirmed by the contents of brownish melanosomes and staining with a p75-specific antibody against melanocytes. […] This effect was further enhanced, when HLA-C*06:02-positive melanocytes were preincubated with interferon (IFN)-γ, which increases the expression of HLA-class I molecules (FIG. 2C). […] TCR-hybridoma activation was HLA-restricted.
(B) TCR-hybridoma activation by HLA-C*06:02-positive (left) or HLA-C*06:02-negative (right) primary human melanocytes (MC) in the absence or presence of IFN-γ or a HLA-class I blocking antibody. Frequency of NFAT-sGFP^+ hybridoma cells was assessed by flow cytometry and normalized to the maximum value induced by CD3 activation in the same experiment. […]

Molecule	staining / binding of CD8+ blood T cells by HLA-C*06:02-peptide dextramers [1]	effect of IFN-γ addition on TCR-hybridoma activation (HLA-class I)
VRHDGGNVL [unrelated peptide (Falk et al., 1993), HLA-C*06:02 ligand, negative control complexed with HLA-C*06:02-dextramers]	did not bind	
B1		increased
